In PubChem BioAssay AID330 (DTP/NCI, 2004):
“And” between values parts separate entries of the source, which are not always exact repeats. Identical values can stand only once. Inconclusive results and toxic doses are left out. The calls were made as follows: active = survival T/C of 150% or more; inactive = T/C below 125% in these data.

Tested on: P388 leukemia ip, CD2F1 mice, survival T/C
Assay: NCI In Vivo Anticancer Drug Screen. Data for tumor model P388 Leukemia (intraperitoneal) in CD2F1 (CDF1) mice
Conditions: endpoint: median survival time, higher = longer survival
Summary of the method: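 Mice carrying the transplanted tumor received test compound or vehicle. Survival was recorded in each group, and the value is the treated-group measurement divided by that of the vehicle-treated control group.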

[1] = dose: 25.0 mg/kg/injection, schedule: Q01DX009 (ip), vehicle: saline with Tween-80
[2] = dose: 50.0 mg/kg/injection, schedule: Q01DX009 (ip), vehicle: saline with Tween-80
[3] = dose: 100.0 mg/kg/injection, schedule: Q01DX009 (ip), vehicle: saline with Tween-80
[4] = dose: 60.0 mg/kg/injection, schedule: Q01DX005 (ip), vehicle: saline
[5] = dose: 120.0 mg/kg/injection, schedule: Q01DX005 (ip), vehicle: saline
[6] = dose: 240.0 mg/kg/injection, schedule: Q01DX005 (ip), vehicle: saline
[7] = dose: 50.0 mg/kg/injection, schedule: Q01DX005 (ip), vehicle: Klucel (hydroxypropylcellulose) (HPC)
[8] = dose: 100.0 mg/kg/injection, schedule: Q01DX005 (ip), vehicle: Klucel (hydroxypropylcellulose) (HPC)
[9] = dose: 200.0 mg/kg/injection, schedule: Q01DX005 (ip), vehicle: Klucel (hydroxypropylcellulose) (HPC)
[10] = dose: 50.0 mg/kg/injection, schedule: Q01DX009 (ip), vehicle: Klucel (hydroxypropylcellulose) (HPC)
[11] = dose: 100.0 mg/kg/injection, schedule: Q01DX009 (ip), vehicle: Klucel (hydroxypropylcellulose) (HPC)
[12] = dose: 200.0 mg/kg/injection, schedule: Q01DX009 (ip), vehicle: Klucel (hydroxypropylcellulose) (HPC)
[13] = dose: 25.0 mg/kg/injection, schedule: Q04DX002 (ip), vehicle: saline
[14] = dose: 50.0 mg/kg/injection, schedule: Q04DX002 (ip), vehicle: saline
[15] = dose: 100.0 mg/kg/injection, schedule: Q04DX002 (ip), vehicle: saline
[16] = dose: 60.0 mg/kg/injection, schedule: Q01DX005 (ip), vehicle: saline with Tween-80

Measured: T/C

CCOC(=O)C[N+]12CCC34c5cc(OC)c(OC)cc5N5C(=O)CC6OCC=C(C1)C(CC32)C6C54 (stereo not drawn)
inactive: dose: 1.56 mg/kg/injection, schedule: Q01DX009 (ip), vehicle: saline with Tween-80 100 % of control and 108 % of control | dose: 3.12 mg/kg/injection, schedule: Q01DX009 (ip), vehicle: saline with Tween-80 100 % of control and 108 % of control | [1] 105 % of control (2×) and 94 % of control | [2] 105 % of control and 111 % of control and 95 % of control | [3] 105 % of control and 111 % of control and 98 % of control

CN(c1ccccc1)c1cc(=O)nc2ccccn12
inactive: [4] 105 % of control | [5] 98 % of control | [6] 105 % of control

C[N+](C)([O-])Cc1ccccc1C[N+](C)(C)[O-]
inactive: [4] 102 % of control | [5] 110 % of control | [6] 112 % of control

COc1ccccc1[B-]12OCC[N+]1(CNC(=O)c1ccccc1O)CCO2 (stereo not drawn)
inactive: [7] 102 % of control | [8] 103 % of control | [9] 103 % of control

CCCCCCCCCCCCCCCCS(=O)(=O)N/N=C(\c1ccc(O)c(OC)c1)N1CCOCC1
inactive: [10] 110 % of control | [11] 101 % of control | [12] 96 % of control

CCCCCCCCCCCC(=O)OCCN(C=O)C[n+]1ccccc1
inactive: [13] 98 % of control | [14] 96 % of control | [15] 91 % of control

O=S(=O)(Nc1ccc(Cl)cc1C(F)(F)F)c1ccc(F)cc1
inactive: [16] 100 % of control | dose: 120.0 mg/kg/injection, schedule: Q01DX005 (ip), vehicle: saline with Tween-80 110 % of control

Cn1c(=O)c2nc(-c3cccc([N+](=O)[O-])c3)cnc2n(C)c1=O
inactive: dose: 100.0 mg/kg/injection, schedule: Q04DX002 (ip), vehicle: Klucel (hydroxypropylcellulose) (HPC) 89 % of control | dose: 200.0 mg/kg/injection, schedule: Q04DX002 (ip), vehicle: Klucel (hydroxypropylcellulose) (HPC) 95 % of control | dose: 400.0 mg/kg/injection, schedule: Q04DX002 (ip), vehicle: Klucel (hydroxypropylcellulose) (HPC) 100 % of control

COc1ccc(/C=C/C(=O)c2ccccc(=O)c2O)c(OC)c1OC
inactive: dose: 25.0 mg/kg/injection, schedule: Q01DX005 (ip), vehicle: Klucel (hydroxypropylcellulose) (HPC) 105 % of control | [7] 99 % of control | [8] 109 % of control | [9] 108 % of control

CC(=O)SCN1CCCCC1
inactive: dose: 12.5 mg/kg/injection, schedule: Q01DX009 (ip), vehicle: saline 108 % of control | dose: 25.0 mg/kg/injection, schedule: Q01DX009 (ip), vehicle: saline 108 % of control and 112 % of control | [13] 110 % of control | dose: 50.0 mg/kg/injection, schedule: Q01DX009 (ip), vehicle: saline 102 % of control and 118 % of control | [14] 112 % of control | dose: 100.0 mg/kg/injection, schedule: Q01DX009 (ip), vehicle: saline 108 % of control | [15] 114 % of control and 116 % of control

OC(Cn1cccc1)Cn1cccc1
inactive: [4] 100 % of control | [5] 103 % of control | [6] 100 % of control

CCOC(=O)NC(NC(=O)OCC)c1cccc([N+](=O)[O-])c1
inactive: dose: 100.0 mg/kg/injection, schedule: Q04DX003 (ip), vehicle: saline 91 % of control | dose: 200.0 mg/kg/injection, schedule: Q04DX003 (ip), vehicle: saline 95 % of control | dose: 400.0 mg/kg/injection, schedule: Q04DX003 (ip), vehicle: saline 91 % of control

S=C1N(c2ccccc2)CCN1c1ccccc1
inactive: dose: 60.0 mg/kg/injection, schedule: Q01DX005 (ip), vehicle: Klucel (hydroxypropylcellulose) (HPC) 101 % of control | dose: 120.0 mg/kg/injection, schedule: Q01DX005 (ip), vehicle: Klucel (hydroxypropylcellulose) (HPC) 100 % of control | dose: 240.0 mg/kg/injection, schedule: Q01DX005 (ip), vehicle: Klucel (hydroxypropylcellulose) (HPC) 94 % of control

CSCc1csc(N)n1
inactive: dose: 12.5 mg/kg/injection, schedule: Q01DX009 (ip), vehicle: other 102 % of control | dose: 25.0 mg/kg/injection, schedule: Q01DX009 (ip), vehicle: other 96 % of control | dose: 50.0 mg/kg/injection, schedule: Q01DX009 (ip), vehicle: other 111 % of control | dose: 100.0 mg/kg/injection, schedule: Q01DX009 (ip), vehicle: other 111 % of control | dose: 200.0 mg/kg/injection, schedule: Q01DX009 (ip), vehicle: other 100 % of control

CCOC(=O)N1Cc2cc3cc(Cl)ccc3nc2C1
inactive: dose: 3.13 mg/kg/injection, schedule: Q01DX009 (ip), vehicle: saline with Tween-80 98 % of control | dose: 6.25 mg/kg/injection, schedule: Q01DX009 (ip), vehicle: saline with Tween-80 105 % of control | dose: 8.0 mg/kg/injection, schedule: Q01DX009 (ip), vehicle: saline with Tween-80 95 % of control | dose: 12.5 mg/kg/injection, schedule: Q01DX009 (ip), vehicle: saline with Tween-80 105 % of control | dose: 16.0 mg/kg/injection, schedule: Q01DX009 (ip), vehicle: saline with Tween-80 88 % of control | [1] 116 % of control | dose: 32.0 mg/kg/injection, schedule: Q01DX009 (ip), vehicle: saline with Tween-80 87 % of control | dose: 64.0 mg/kg/injection, schedule: Q01DX009 (ip), vehicle: saline with Tween-80 95 % of control | dose: 128.0 mg/kg/injection, schedule: Q01DX009 (ip), vehicle: saline with Tween-80 100 % of control

NC(=O)N/N=C/c1cccc(O)c1O
inactive: [10] 101 % of control | [11] 107 % of control | [12] 116 % of control

NC(=S)c1cccc(OCCCOc2ccccc2)c1
inactive: [7] 96 % of control | [8] 91 % of control

CC(=O)C(C)(CC#N)C(CC=O)CCC#N (stereo not drawn)
inactive: [16] 111 % of control

Cc1nc(-c2ccccc2-n2cccc2)no1
inactive: [2] 104 % of control | [3] 102 % of control

COc1cc(C=C(C(C)=O)C(C)=O)ccc1O
inactive: dose: 50.0 mg/kg/injection, schedule: Q04DX003 (ip), vehicle: saline with Tween-80 100 % of control | dose: 100.0 mg/kg/injection, schedule: Q04DX003 (ip), vehicle: saline with Tween-80 100 % of control | dose: 200.0 mg/kg/injection, schedule: Q04DX003 (ip), vehicle: saline with Tween-80 100 % of control

CCC(C)C1NC(=O)C(NC(=O)c2c3[nH]c4c(C(=O)NC5C(=O)NC(C(C)CC)C(=O)N6CCCC6C(=O)N(C)CC(=O)N(C)C(C(C)C)C(=O)OC5C)ccc(C)c4oc-3c(C)c(=O)c2=O)C(C)OC(=O)C(C(C)C)N(C)C(=O)CN(C)C(=O)C2CCCN2C1=O (stereo not drawn)
inactive: dose: 0.05 mg/kg/injection, schedule: Q01DX009 (ip), vehicle: water 99 % of control | dose: 0.1 mg/kg/injection, schedule: Q01DX009 (ip), vehicle: water 104 % of control | dose: 0.2 mg/kg/injection, schedule: Q01DX009 (ip), vehicle: water 95 % of control | dose: 0.4 mg/kg/injection, schedule: Q01DX009 (ip), vehicle: water 100 % of control and 104 % of control | dose: 0.8 mg/kg/injection, schedule: Q01DX009 (ip), vehicle: water 101 % of control and 96 % of control | dose: 1.6 mg/kg/injection, schedule: Q01DX009 (ip), vehicle: water 102 % of control and 110 % of control | dose: 3.2 mg/kg/injection, schedule: Q01DX009 (ip), vehicle: water 110 % of control | dose: 6.4 mg/kg/injection, schedule: Q01DX009 (ip), vehicle: water 123 % of control
